Results published in patent publication US20250145606A1 (Arcus Biosciences, Inc., priority 2023, published 2025).
Read-outs that look alike come from different tables or passages of the source. Marks after values point to notes of the source that are not given here.

Legend:
beagle dog hepatocytes = test: Bioactivation assessment in dog hepatocytes; assay type: in vitro ADME; conditions: 5 μM, 4 hours
Procedure: Bioactivation Assessment Procedure
Pooled male Sprague Dawley rat (BioIVT), male beagle dog (BioIVT), male cynomolgus monkey (BioIVT), and a 50-donor pool of cryopreserved human hepatocytes (BioIVT) was thawed in pre-warmed 37° C. InVitroGro™ HT media (BioIVT), centrifuged, and resuspended in the InVitroGro™ HI media (BioIVT). The number of viable cells was determined by the Trypan blue exclusion method. The cells were diluted to a concentration of two million viable cells per milliliter (viability >80%) and seeded into round-bottom 96-well plates. The test articles were dissolved in DMSO and further diluted in 50% CH3CN and InVitroGro™ HI media with final concentrations of 0.05% DMSO and 0.5% CH3CN in the incubation mixture. Incubation was performed at a final concentration of one million cells per milliliter and 5 μM test compounds with continuous shaking at 1100 rpm in a 37° C., 5/95% CO2/air incubator with 100% relative humidity. After 4 hours, the samples were quenched by addition of 3 volumes of CH3CN, vortexed for 15 minutes, and centrifuged at 4200 rpm for 15 minutes at 10° C. (Sorvall Legend XTR centrifuge, Thermo Scientific, Langenselbold, Germany). 80 μL of the resulting supernatant was transferred into a new plate and mixed with 160 μL water followed by liquid chromatography-high resolution mass spectrometry (LC-HRMS) analysis.
Structural assignments of metabolites were determined through mass spectral analysis. The level of bioactivation was estimated based on the relative peak area of bioactivation products to all identified metabolites. The following equation was used: […]
Bioactivation products included glutathione conjugates, imine methides, quinones, diols, and other relevant metabolites.

[1] = system: Phospho-KIT (Y703) in M07e cells; test: Phospho-KIT (Y703) cellular assay in M07e cells; assay type: cell-based; conditions: M-07e, read-out: M07e Cell IC50
Procedure, shortened: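 Serum-starved M07e cells preincubated 50 min at 37° C with 11-point half-log compound titration, then stimulated 10 min with SCF at 90.9 ng/mL final. Fixed, permeabilized cells stained for phospho-KIT Y703 and read by flow cytometry (live-gated geometric mean); IC50 by 4-parameter fit normalized to DMSO and positive control.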

[2] = phospho-KIT (Y703), SCF-stimulated M07e cells

Structure (SMILES)	Percent of total metabolism via bioactivation, Dog hepatocytes (beagle dog hepatocytes)	IC50 [1]	IC50 [1, 2]	IC50 ([1]; Phospho-KIT (Y703), M07e cells)
Cc1ncc(C(=O)Nc2cc(C(=O)Nc3ccc(CC4CC4)cn3)c(F)cc2C)s1 [Example 5, N-[5-[[5-(Cyclopropylmethyl)pyridin-2-yl]carbamoyl]-4-fluoro-2-methylphenyl]-2-methyl-1,3-thiazole-5-carboxamide]	4%	< 100 nM	–	–
Cc1ncc(C(=O)Nc2cc(C(=O)Nc3ccc(OC4CC4)cn3)c(F)cc2C)s1 [Example 2, N-[5-[(5-Cyclopropyloxypyridin-2-yl)carbamoyl]-4-fluoro-2-methylphenyl]-2-methyl-1,3-thiazole-5-carboxamide]	3-4%^a	–	< 100 nM	–
Cc1ncc(C(=O)Nc2cc(C(=O)Nc3ccc(OC(F)F)cn3)c(F)cc2C)s1 [Example 38, N-[5-[[5-(difluoromethoxy)pyridin-2-yl]carbamoyl]-4-fluoro-2-methylphenyl]-2-methyl-1,3-thiazole-5-carboxamide]	<1%	–	–	< 100 nM
Cc1ncc(C(=O)Nc2cc(C(=O)Nc3ccc(C4CC4)cn3)c(F)cc2C)s1 [Example 3, N-[5-[(5-Cyclopropylpyridin-2-yl)carbamoyl]-4-fluoro-2-methylphenyl]-2-methyl-1,3-thiazole-5-carboxamide]	2%	< 100 nM	–	–
Cc1ncc(C(=O)Nc2cc(C(=O)Nc3ccc(CC(F)(F)F)cn3)c(F)cc2Cl)s1 [Example 46, N-[2-chloro-4-fluoro-5-[[5-(2,2,2-trifluoroethyl)pyridin-2-yl]carbamoyl]phenyl]-2-methyl-1,3-thiazole-5-carboxamide]	97%	–	–	< 100 nM
Cc1ncc(C(=O)Nc2cc(C(=O)Nc3ccc(CC(F)(F)F)cn3)c(F)cc2C)s1 [Example 1, N-[4-Fluoro-2-methyl-5-[[5-(2,2,2-trifluoroethyl)pyridin-2-yl]carbamoyl]phenyl]-2-methyl-1,3-thiazole-5-carboxamide]	<1%^b	< 100 nM	–	–
Cc1ncc(C(=O)Nc2cc(C(=O)Nc3cnc(OCC(C)(F)F)cn3)c(F)cc2C)s1 [Example 4, N-[5-[[5-(2,2-Difluoropropoxy)pyrazin-2-yl]carbamoyl]-4-fluoro-2-methylphenyl]-2-methyl-1,3-thiazole-5-carboxamide]	<1%^a	–	< 100 nM	–
